Where two headings read alike, the source gives them in different places.
Legend:
[1] = tested on: inhibition of conditioned avoidance response induced by reserpine in rats; assay: Inhibition of conditioned avoidance response induced by reserpine in rats; assay type: in vivo, Std-Wistar male rats; conditions: for Conditioned avoidance response 1 hour after administration of the test sample: reserpine 1 mg/kg, control 2; for Conditioned avoidance response before administration of reserpine: baseline before test sample; for Conditioned avoidance response 18 to 20 hours after administration of reserpine: reserpine 1 mg/kg i.p., before test sample
Method: Effect of the test samples on the inhibition of conditioned avoidance response induced by reserpine in rats
Std-Wistar male rats (8 to 9 week age) weighing of 270 to 300 g were fed under the conditions of 23±2° C., 60±10% R.H. and artificial lighting from 7 AM to 7 PM for a week, and then subjected to the test.
The test was carried out by using a shuttle box. The shuttle box used herein was a rectangular box, which was equipped with a buzzer for conditioned stimulus at the upper part and grids of 2 mm in diameter, for non-conditioned stimulus, at intervals of 1 cm on the floor, and divided into two equal sized compartments by a hurdle of 5 cm in height.
The schedule for inducing the conditioned avoidance response was controlled by a computer, and all the observed results of avoidance or escape response were recorded automatically.
The avoidance condition was carried out as follows:
After the conditioned stimulus of the buzzer with sound signal for 5 seconds, the non-conditioned stimulus of the foot shock was given for 5 seconds to rats. Each stimulus was stopped immediately, if the rat jumped over the hurdle to the other compartment during the conditioned or non-conditioned stimulus.
The above-mentioned rats were put on the trials for 25 times. Then the rats were given reserpine (1 mg/kg, intraperitoneally). The rats were tested for 15 times at the time of 18 to 20 hours after the reserpine administration, and then they were divided into several groups ([…]).
The test sample was dissolved in distilled water and administered orally to each group at 24 to 26 hours after the reserpine administration. For reference, distilled water as control sample, and amitriptyline and amantadine as test drugs were used.
At one hour after the test sample administration, the rats were put on the trials for 25 times and the conditioned avoidance responce was compared between the control group (distilled water administration), the test compound-administered group and the test drug-administered groups.

[2] = tested on: depletion of dopamine induced by MPTP in mice whole brain; assay: animal or person; assay type: in vivo, SlC: ddy strain male mice; conditions: Mus musculus, po, 168 h, read-out: Percentage of the amount of dopamine in the treated group against the amount of dopamine in the non-treated group
[3] = tested on: circling behavior in rats with unilateral substantia nigra lesions; assay: Circling behavior in rats with unilateral substantia nigra lesions; assay type: in vivo, Std: Wistar male rats; conditions: 50 mg/kg oral, 2 hours after; control 0.1 ± 0.4
Method: Effect of the test samples on circling behavior in rats with unilateral substantia nigra lesions
Std: Wistar male rats (8 heads/group) were used. The rat with unilateral substantia nigra lesions was made by injecting 8 μg/4 μl of 6-hydroxydopamine to the right side of substantia nigra.
The test sample was administered orally to the rat. At 2 hours later, the number of circling behavior per 10 minutes was counted.
Amantadine was used as the reference drug and distilled water was used as control sample.

[4] = tested on: re-uptake of ^3 H-dopamine; assay: Re-uptake of 3H-dopamine in vitro (synaptosomes, P2 fraction of whole brain); assay type: biochemical, Std: Wistar strain male rat; conditions: rat brain synaptosomes, 37° C., 20 minutes
Method: Effect of the test samples on the re-uptake of ^3 H-dopamine in vitro
P2 fraction was prepared from the whole brain of Std: Wistar strain male rat. […] The obtained mixture was incubated at 37° C. for 20 minutes and then subjected to the suction filtration with Whatman GF/B filter paper.
The obtained filter paper was put in a vial containing 10 ml of toluene type scintillator and its radioactivity was measured by means of liquid scintillation counter. The amount of the specific re-uptake of ^3 H-dopamine was obtained by subtracting the amount of re-uptake at 0° C. as blank.

[5] = tested on: depletion of serotonin induced by p-chloroamphetamine; assay: Depletion of serotonin (5-HT) induced by p-chloroamphetamine (whole brain); assay type: in vivo, SlC:ddy mice; conditions: p-chloroamphetamine 10 mg/kg i.p., control 48 ± 6, **p < 0.01
Method: Effect of the test samples on the depletion of serotonin (hereinafter referred to as "5-HT") induced by p-chloroamphetamine
The test sample was administered orally to SlC:ddy made mice and after 60 minutes, p-chloroamphetamine (10 mg/kg) was injected intraperitoneally.
At 6 hours later, the mice were decapitated. The whole brain was rapidly removed and homogenized in 0.06M perchloric acid with N-methylserotonin (10 μg/ml) as an internal standard. The homogenate was centrifuged and then the amount of 5-HT in the supernatant was determined by high performance liquid chromatography with electrochemical detection.
Amitriptyline was used as the reference drug and distilled water was used as control sample.

[6] = tested on: depletion of norepinephrine induced by 6-hydroxydopamine in rat heart; assay: Depletion of norepinephrine induced by 6-hydroxydopamine in rat heart; assay type: in vivo, Std: Wistar male rats; conditions: 6-hydroxydopamine 20 mg/kg i.p., control 20 ± 4, non-treatment 425 ± 49, **p < 0.01
Method: Effect of the test samples on the depletion of norepinephrine induced by 6-hydroxydopamine in rat heart.
The test sample was administered orally to Std: Wistar male rats and after 30 minutes, 6-hydroxydopamine (20 mg/kg) was injected intraperitoneally.
At 16 hours after injection of 6-hydroxydopamine, the rats were killed. The whole heart was rapidly removed and homogenized in 0.05M perchloric acid with isoproterenol (10 mg/ml) as an internal standard. The homogenate was centrifuged and then the amount of norepinephrine in the supernatant was determined by means of high performance liquid chromatography with electrochemical detection.
Desipramine was used as the reference drug and distilled water was used as control sample.

[7] = Acute toxicity, oral, mice; set-up: species or system SlC:ddy male mice; conditions: mouse, in vivo, read-out: Number of dead mice per 10 mice
Method: SlC:ddy male mice (10 heads/group) were used.
After the oral administration of the test smaple, desipramine was used as the test drug, to the mice, the number of the dead mice was counted at 0.5, 1, 2, 4, 18 and 24 hours respectively after the oral administration.

[8] = Experiment I, 10 mg/kg oral, MPTP 50 mg/kg s.c., control 71 ± 11, *P < 0.05, **P < 0.01
[9] = Experiment I, 30 mg/kg oral, MPTP 50 mg/kg s.c., control 71 ± 11, *P < 0.05, **P < 0.01

## NC12CC3CC(CC(C3)C1)C2 [Amantadine, amantadine]
[1]; 10 mg/kg oral
  Conditioned avoidance response 1 hour after administration of the test sample: 2%
[1]; 50 mg/kg oral
  Conditioned avoidance response 1 hour after administration of the test sample: 38%
[1]; 10 mg/kg group
  Conditioned avoidance response before administration of reserpine: 94%
  Conditioned avoidance response 18 to 20 hours after administration of reserpine: 3%
[1]; 50 mg/kg group
  Conditioned avoidance response before administration of reserpine: 95%
  Conditioned avoidance response 18 to 20 hours after administration of reserpine: 3%
[2]; Experiment II, 10 mg/kg oral, MPTP 50 mg/kg s.c., control 88 ± 20, *P < 0.05
  response vs control in vivo at 10 mg/kg: 77 ± 21%
[2]; Experiment II, 30 mg/kg oral, MPTP 50 mg/kg s.c., control 88 ± 20, *P < 0.05
  response vs control in vivo at 30 mg/kg: 64 ± 16%
[3]
  Number of circling behavior per 10 min.: 0.4 ± 0.7 per 10 min.

## CN(C)CCC=C1c2ccccc2CCc2ccccc21 [Amitriptyline, amitriptyline]
[1]; 10 mg/kg oral
  Conditioned avoidance response 1 hour after administration of the test sample: 1%
[1]; 40 mg/kg oral
  Conditioned avoidance response 1 hour after administration of the test sample: 0%
[1]; 10 mg/kg group
  Conditioned avoidance response before administration of reserpine: 93%
  Conditioned avoidance response 18 to 20 hours after administration of reserpine: 1%
[1]; 40 mg/kg group
  Conditioned avoidance response before administration of reserpine: 94%
  Conditioned avoidance response 18 to 20 hours after administration of reserpine: 7%
[2]; [8]
  response vs control in vivo at 10 mg/kg: 81 ± 15%
[2]; [9]
  response vs control in vivo at 30 mg/kg: 77 ± 15%
[4]; Experiment I
  IC50: 7.7 µM
[4]; Experiment II
  IC50: 8.2 µM
[5]; 10 mg/kg oral
  Percentages of the amount of 5-HT in the treated group against the amount of 5-HT in the non-treated group: 50 ± 4%
[5]; 30 mg/kg oral
  Percentages of the amount of 5-HT in the treated group against the amount of 5-HT in the non-treated group: 56 ± 10%
[5]; 90 mg/kg oral
  Percentages of the amount of 5-HT in the treated group against the amount of 5-HT in the non-treated group: 92 ± 8%

## CN(C)CCCN1c2ccccc2CCc2ccc(Cl)cc21 [Clomipramine, clomipramine]
[2]
  response vs control in vivo at 10 mg/kg: 74 ± 13%
  response vs control in vivo at 30 mg/kg: 74 ± 14%

## CNCCCN1c2ccccc2CCc2ccccc21 [Desipramine, desipramine]
[2]; [8]
  response vs control in vivo at 10 mg/kg: 74 ± 15%
[2]; [9]
  response vs control in vivo at 30 mg/kg: 79 ± 18%
[6]; 0.625 mg/kg oral
  Amount of Norepinephrine: 35 ± 4 ng/g
[6]; 1.25 mg/kg oral
  Amount of Norepinephrine: 74 ± 26 ng/g
[6]; 2.5 mg/kg oral
  Amount of Norepinephrine: 211 ± 79 ng/g
[7]; 200 mg/kg oral
  mortality at 0.5 h: 0%
  mortality at 1 h: 0%
  mortality at 2 h: 0%
  mortality at 4 h: 0%
  mortality at 18 h: 0%
  mortality at 24 h: 0%
[7]; 800 mg/kg oral
  mortality at 0.5 h: 100%
  mortality at 1 h: 100%
  mortality at 2 h: 100%
  mortality at 4 h: 100%
  mortality at 18 h: 100%
  mortality at 24 h: 100%

## CN(C)CC/C=C1\c2ccccc2CSc2ccccc21 [Dosulepin, dosulepin]
[2]; [8]
  response vs control in vivo at 10 mg/kg: 70 ± 13%
[2]; [9]
  response vs control in vivo at 30 mg/kg: 77 ± 12%

## CN(C)CCCN1c2ccccc2CCc2ccccc21 [Imipramine, imipramine]
[4]; Experiment II
  IC50: 15 µM

## CNCCCC12CCC(c3ccccc31)c1ccccc12 [Maprotiline, maprotiline]
[2]
  response vs control in vivo at 10 mg/kg: 65 ± 17%
  response vs control in vivo at 30 mg/kg: 74 ± 17%

## CN[C@@H](C)Cc1ccccc1 [Methamphetamine, methamphetamine]
[2]; Experiment I, 3 mg/kg oral, MPTP 50 mg/kg s.c., control 71 ± 11, *P < 0.05, **P < 0.01
  response vs control in vivo at 3 mg/kg: 97 ± 14%
[2]; Experiment II, 3 mg/kg oral, MPTP 50 mg/kg s.c., control 88 ± 20, *P < 0.05
  response vs control in vivo at 3 mg/kg: 102 ± 21%
[2]
  response vs control in vivo at 3 mg/kg: 91 ± 20%

## CN1CCN2c3ccccc3Cc3ccccc3C2C1 (stereo not drawn) [Mianserin, mianserin]
[2]
  response vs control in vivo at 10 mg/kg: 72 ± 16%
  response vs control in vivo at 30 mg/kg: 69 ± 8%
